Like-named read-outs stand apart in the source and are kept apart here.
Key:
Type in all cases: cell-based
[1] = system: MHC class I molecules of T1 cells (human lymphoma cell line 174×CEM.); experiment: Effect on expression of MHC class I from T1 cells (flow cytometry, MFI); conditions: 3 days culture
Method in brief: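 EC20 is the compound level that lowers MHC class I MFI by 20% relative to compound-free cultures. Read-out was flow cytometry after FITC W6/32 staining.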

[2] = system: MHC class I molecules of human peripheral blood-derived dendritic cells; experiment: Effect on expression of MHC class I molecules from human peripheral blood-derived dendritic cells; conditions: dendritic cells matured with TNF-α, 3 days; read-out: EC50 (reduction of 50% of the number of cells wherein MHC class I molecules were highly expressed)
Excerpt: Effect on Expression of MHC Class I Molecules from Human Peripheral Blood-Derived Dendritic Cells
Monocytes were isolated from human peripheral blood by the specific gravity centrifugation method. Thereafter, using mouse anti-human CD14 antibody-binding microbeads and a magnetic cell separation system (Miltenyi Biotec), CD14 positive cells were separated from the peripheral blood monocytes. The separated CD14 positive cells were suspended in an RPMI 1640 medium containing 10% FBS, and the suspension was then inoculated in a 6-well plate, resulting in a concentration of 1.0×10^6 cells/well. It was cultured at 37° C. for 20 minutes in an incubator containing 5% carbon dioxide. […] Thereafter, RPMI 1640 containing a 500 U/ml human recombinant […] (hereinafter referred to as GM-CSF; Anapure Bioscientific), 50 ng/ml human recombinant interleukin 4 (hereinafter referred to as IL-4; Pepro Tech), and 10% FBS, was added to the remaining suspension at a concentration of 2 ml/well. The obtained mixture was then cultured at 37° C. in an incubator containing 5% carbon dioxide. When adhesive CD14 positive cells are cultured in the presence of GM-CSF and IL-4, the CD14 positive cells were differentiated into non-adhesive immature dendritic cells. After the cells had been cultured for 7 days, non-adhesive cells were recovered to obtain immature dendritic cells. Using a 6-well plate, the immature dendritic cells (2.5×10^5 cells/well) were cultured in RPMI 1640 containing a 100 U/ml human recombinant tumor necrosis factor-α (hereinafter referred to as TNF-a; Pepro Tech), a test compound, and 10% FBS, at 37° C. for 3 days in an incubator containing 5% carbon dioxide. The dendritic cells became mature as a result of the presence of TNF-α, but in the present test, a test compound was allowed to simultaneously act on the cells. The mature dendritic cells were then stained with fluoroisothiocyanate-labeled mouse anti-human MHC class I monoclonal antibody (an antibody generated from the cell line W6/32 (ATCC No. CRL 1991)). The rate of the number of cells wherein MHC class I molecules were highly expressed to the total number of cells was measured by flow cytometry. The reduction rate of the number of cells wherein MHC class I molecules were highly expressed was calculated using the following formula (2), and the concentrations of test compounds necessary for reduction of 50% (EC50 values) were obtained.
[formula] • Eexp: (The number of cells, wherein MHC class I molecules are highly expressed, in cultured cells containing test compound)/(the total number of cells) • Cexp: (The number of cells, wherein MHC class I molecules are highly expressed, in cultured cells containing no test compounds)/(the total number of cells)

[3] = system: human dendritic cells cultured with human allogenic T cells; experiment: Effect on the ability of human dendritic cells to induce the growth of allogenic T cells ([3H]-thymidine incorporation); conditions: dendritic cells treated 3 days with test compound and TNF-α, then 5 days with allogenic T cells, read-out: IC50 (inhibition of DNA synthesis of lymphocytes)
Experimental: Effect on the Ability of Human Dendritic Cells to Induce the Growth of Allogenic T Cells
Immature dendritic cells were cultured with a test compound and TNF-α for 3 days by the same method as that described in Test Example 2. The obtained dendritic cells (2.5×10^3 cells/50 μl/well) were cultured together with human allogenic T cells (2.0×10^5 cells/150 μl/well) in a 96-well flat bottom plate at 37° C. for 5 days in an incubator containing 5% carbon dioxide. Thereafter, [^3H]-thymidine (Amersham Pharmacia Biotech) was added thereto at an amount of 1 μCi/10 μl/well, 16 hours before completion of the culture. After completion of the culture, cells were captured on a glass filter using a cell harvester (Skatron Instrument) and then dried. Thereafter, Scintillator ACS-II (Amersham Pharmacia Biotech) was added thereto, and the radioactivity of [^3H]-thymidine incorporated into the cells were then measured using a liquid scintillation counter. The inhibition rate of the DNA synthesis of lymphocytes was calculated using the following formula (3). Thereafter, the concentration of a test compound necessary for inhibition of 50% (IC50 value) was obtained.
[formula] • Eexp: The amount of [^3H]-thymidine incorporated into cultured cells containing test compound • Cexp: The amount of [^3H]-thymidine incorporated into cultured cells containing no test compounds

SMILES	EC20 (concentration necessary for suppressing 20% of the expression level of MHC class I molecules) [1]	EC50 [2]	IC50 ([3]; Homo sapiens)	IC50 [3]
COc1ccc(-c2ccnc3nc(NC(=O)N[C@@H](C)C(=O)OC(C)(C)C)nn23)cc1 [Example 049]	230 nM	210 nM	1630 nM	–
COc1ccc(-c2ccnc3nc(NC(=O)NC(C)C)nn23)cc1 [Example 030]	400 nM	480 nM	1250 nM	–
COc1ccc(-c2ccnc3nc(NC(=O)N[C@H](C(=O)N4CCN(C)CC4)C(C)C)nn23)cc1 [Example 069]	410 nM	2850 nM	–	–
COc1ccc(-c2ccnc3nc(NC(=O)NCCC(=O)NCC4CCCO4)nn23)cc1 (stereo not drawn) [Example 158]	390 nM	–	–	690 nM
COc1ccc(-c2ccnc3nc(NC(=O)N[C@H](C(=O)NCCN(C)C)C(C)C)nn23)cc1 [Example 057]	–	–	–	2700 nM
COc1ccc(-c2ccnc3nc(NC(=O)NC4CCCCC4)nn23)cc1 [Example 015]	45 nM	130 nM	380 nM	–
O=C(Nc1ccccc1)Nc1nc2nccc(-c3cccs3)n2n1 [Example 001, 1-phenyl-3-[(7-thiophen-2-yl)-[1,2,4]triazolo[1,5-a]pyrimidin-2-yl]urea]	1100 nM	460 nM	1230 nM	–
O=C(Nc1nc2nccc(-c3cccs3)n2n1)NC1CCCCC1 [Example 007]	180 nM	660 nM	970 nM	–
COc1ccc(-c2ccnc3nc(NC(=O)NC4CCN(Cc5ccccc5)CC4)nn23)cc1 [Example 059]	230 nM	530 nM	–	–
O=C(Nc1nc2nccc(-c3ccc(O)cc3)n2n1)NC1CCCCC1 [Example 024]	240 nM	160 nM	820 nM	–
COc1ccc(-c2ccnc3nc(NC(=O)NC4CCCC4)nn23)cc1 [Example 027]	67 nM	220 nM	–	–
COc1ccc(-c2ccnc3nc(NC(=O)NCc4ccccc4)nn23)cc1 [Example 018]	52 nM	290 nM	–	–
COc1ccc(-c2ccnc3nc(NC(=O)NC(C(=O)NCC4CCCO4)C(C)C)nn23)cc1 (stereo not drawn) [Example 071]	530 nM	670 nM	–	–
COc1ccc(-c2ccnc3nc(NC(=O)NCCCN4CCOCC4)nn23)cc1 [Example 067]	300 nM	2220 nM	–	–
CC(=O)c1cccc(NC(=O)Nc2nc3nccc(-c4cccs4)n3n2)c1 [Example 005]	–	–	–	650 nM
COc1cccc([C@H](C)NC(=O)Nc2nc3nccc(-c4ccc(N(C)C)cc4)n3n2)c1 [Example 232]	40 nM	–	–	–

SMILES	EC20 (concentration necessary for suppressing 20% of the expression level of MHC class I molecules) [1]	EC50 [2]	IC50 ([3]; Homo sapiens)	IC50 [3]
COCCCNC(=O)Nc1nc2nccc(-c3ccc(OC)cc3)n2n1 [Example 106]	510 nM	–	–	–
COc1ccc(-c2ccnc3nc(NC(=O)NC(C)CCC4(C)OCCO4)nn23)cc1 (stereo not drawn) [Example 323]	30 nM	–	–	–
O=C(Nc1nc2nccc(-c3cccc(O)c3)n2n1)NC1CCCCC1 [Example 085]	400 nM	–	–	–
CCOCCC(C)NC(=O)Nc1nc2nccc(-c3ccc4c(c3)OCO4)n2n1 (stereo not drawn) [Example 327, 1-[7-(3,4-methylenedioxyphenyl)-[1,2,4]triazolo[1,5-a]pyrimidin-2-yl]-3-(3-ethoxy-1-methylpropyl)urea]	150 nM	–	–	–
COc1cccc(C(C)NC(=O)Nc2nc3nccc(-c4cccc(OCC5CCCO5)c4)n3n2)c1 (mixture of isomers) [Example 206]	220 nM	–	–	–
CCNC(=O)[C@@H](NC(=O)Nc1nc2nccc(-c3ccc(OC)cc3)n2n1)C(C)C [Example 090]	400 nM	–	–	–
CNC(=O)Nc1nc2nccc(-c3ccc(OC)cc3)n2n1 [Example 026]	900 nM	–	–	–
COc1ccc(-c2ccnc3nc(NC(=O)N[C@H](C(=O)Nc4ccccc4)C(C)C)nn23)cc1 [Example 088]	150 nM	–	–	–
O=C(Nc1nc2nccc(-c3cccs3)n2n1)NC1CCCC1 [Example 028]	152 nM	–	–	–
COc1cccc([C@H](C)NC(=O)Nc2nc3nccc(-c4cccc(OCc5ccccn5)c4)n3n2)c1 [Example 201]	160 nM	–	–	–
CC(CCC(C)(C)O)NC(=O)Nc1nc2nccc(-c3ccc4c(c3)OCO4)n2n1 (stereo not drawn) [Example 330]	210 nM	–	–	–
O=C(Nc1nc2nccc(-c3cccc(OCc4cccnc4)c3)n2n1)NC1CCCCC1 [Example 170]	250 nM	–	–	–
CC(C)NC(=O)Nc1nc2nccc(-c3ccc(O)cc3)n2n1 [Example 053]	370 nM	–	–	–
CC(C)CCC[C@H](C)NC(=O)Nc1nc2nccc(-c3cccc(O)c3)n2n1 [Example 257]	30 nM	–	–	–
CCCCNC(=O)Nc1nc2nccc(-c3ccc(OC)cc3)n2n1 [Example 032]	250 nM	–	–	–
COc1cc(C(C)NC(=O)Nc2nc3nccc(-c4cccc(OCc5cccnc5)c4)n3n2)cc(OC)c1OC (stereo not drawn) [Example 307]	140 nM	–	–	–

Reference: patent US7598244B2, “[1,2,4]triazolo[1,5,a]pyrimidin-2-ylurea derivative and use thereof” (Nippon Kayaku Kabushiki Kaisha, priority 2003, dated 2009)
